Reference: patent publication US10836764B2, “5-HT2C receptor agonists and compositions and methods of use” (Arena Pharmaceuticals, Inc., priority 2016, dated 2020)
Read-outs that look alike come from different tables or passages of the source.

Legend:
[1] = target: T1, 5-HT2B receptor (Homo sapiens (Human), UniProt P41595); experiment: IP accumulation assay, 5-HT2B; assay type: cell-based
Procedure: (§1) HEK293 cells expressing recombinant 5-HT2 receptors were added to sterile poly-D-lysine-coated 96-well microtiter plates (35,000 cells/well) and labeled with 0.6 μCi/well of [^3H]inositol in myoinositol-free DMEM for 18 h. Unincorporated [^3H]inositol was removed by aspiration and replaced with fresh myoinositol-free DMEM supplemented with LiCl (10 mM final) and pargyline (10 μM final). Serially diluted test compounds were then added and incubation was conducted for 2 h at 37° C. (5-HT2B, and 5-HT2A) and RT (5-HT2C). Incubations were then terminated by lysing cells with the addition of ice-cold 0.1 M formic acid followed by freezing at −80° C. After thawing, total [^3H]inositol phosphates were resolved from [^3H]inositol using AG1-X8 ion exchange resin (Bio-Rad) and [^3H]inositol phosphates were measured by scintillation counting using a Perkin Elmer TopCount® scintillation counter. All EC50 determinations were performed using 10 different concentrations and triplicate determinations were made at each test concentration.

[2] = target: T1, 5-HT2B receptor; experiment: DOI radioligand binding assay, 5-HT2B; conditions: [125I]DOI competition, HEK293 cell membranes
Procedure: (§2) For the compounds of Table A, the following procedure was used. HEK293 cells stably expressing recombinant 5-HT2 receptors were harvested, suspended in ice-cold phosphate buffered saline, pH 7.4 (PBS), and then centrifuged at 48,000 g for 20 min at 4° C. The resulting cell pellet was then re-suspended in wash buffer containing 20 mM HEPES, pH 7.4 and 0.1 mM EDTA, homogenized on ice using a Brinkman Polytron, and centrifuged (48,000 g for 20 min at 4° C.). The pellet was then resuspended in 20 mM HEPES, pH 7.4, homogenized on ice, and centrifuged (48,000 g for 20 min at 4° C.). Crude membrane pellets were stored at −80° C. until used for radioligand binding assays.
(§3) For the compounds of Table A, the following procedure was used. […] Experiments comprised addition of 95 μL of assay buffer (20 mM HEPES, pH 7.4, 10 mM MgCl2), 50 μL of membranes, 50 μL of radioligand stock, and 5 μL of test compound diluted in assay buffer to 96-well microtiter plates, which were then incubated for 1 h at room temperature. Assay incubations were terminated by rapid filtration through PerkinElmer F/C filtration plates under reduced pressure using a 96-well Packard filtration apparatus, followed by washing three times with ice cold assay buffer. Plates were then dried at 45° C. for a minimum of 2 h. Finally, 25 μL of BetaScint™ scintillation cocktail was added to each well and the plates were counted in a Packard TopCount® scintillation counter. In each competition study, test compounds were dosed at ten concentrations with triplicate determinations at each test concentration.

[3] = target: T2, 5-HT2C receptor (Homo sapiens (Human), UniProt P28335); experiment: DOI radioligand binding assay, 5-HT2C
Procedure: as §2, §3

[4] = target: T2, 5-HT2C receptor; experiment: IP accumulation assay, 5-HT2C; assay type: cell-based
Procedure: as §1

[5] = Food intake in the male Sprague Dawley rat; assay type: in vivo; conditions: PO 1, 2 or 5 mg/kg, 1 hour following administration, relative to placebo
Procedure: Male Sprague Dawley rats (225-300 g) were housed three per cage in a temperature and humidity controlled environment (12 h:12 h light:dark cycle, lights on at 0600 h). At 1600 h on the day before the test, rats were placed in fresh cages and food was removed. On test day, rats were placed into individual cages with grid floors at 1000 h with no access to food. At 1130 h, rats (n=8) were administered either vehicle (20% hydroxypropyl-β-cyclodextrin) or test compound via oral gavage (PO, 1 mL/kg, with an amount of 1 mg/kg, 2 mg/kg or 5 mg/kg of test compound) 30 min prior to food presentation. Food intake was measured at 60 min after drug administration (30 min after food presentation).

[6] = add on treatment, non-depressed patients with poorly controlled epilepsy; cited from earlier work
[7] = cited from earlier work
[8] = patients without diabetes, cited from earlier work
[9] = cited from earlier work; remark: listed apart in the source
[10] = 10 mg BID, type 2 diabetes; cited from earlier work
[11] = pivotal phase 3 program, up to two years
[12] = patients with type 2 diabetes, BID
[13] = patients without type 2 diabetes

T1 sequence (P41595 whole entry): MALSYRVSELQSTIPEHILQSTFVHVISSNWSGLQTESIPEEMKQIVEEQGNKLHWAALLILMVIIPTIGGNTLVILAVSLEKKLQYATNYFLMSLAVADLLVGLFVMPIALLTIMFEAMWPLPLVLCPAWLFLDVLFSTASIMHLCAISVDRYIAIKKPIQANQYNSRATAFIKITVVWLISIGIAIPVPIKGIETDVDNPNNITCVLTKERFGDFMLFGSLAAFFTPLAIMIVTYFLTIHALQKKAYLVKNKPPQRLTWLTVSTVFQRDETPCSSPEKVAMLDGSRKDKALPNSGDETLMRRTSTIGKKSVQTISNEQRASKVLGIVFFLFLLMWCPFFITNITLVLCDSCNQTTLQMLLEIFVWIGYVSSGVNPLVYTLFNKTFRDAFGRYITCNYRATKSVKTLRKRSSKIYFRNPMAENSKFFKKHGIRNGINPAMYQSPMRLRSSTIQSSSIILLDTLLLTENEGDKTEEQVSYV
T2 sequence (P28335 33-458): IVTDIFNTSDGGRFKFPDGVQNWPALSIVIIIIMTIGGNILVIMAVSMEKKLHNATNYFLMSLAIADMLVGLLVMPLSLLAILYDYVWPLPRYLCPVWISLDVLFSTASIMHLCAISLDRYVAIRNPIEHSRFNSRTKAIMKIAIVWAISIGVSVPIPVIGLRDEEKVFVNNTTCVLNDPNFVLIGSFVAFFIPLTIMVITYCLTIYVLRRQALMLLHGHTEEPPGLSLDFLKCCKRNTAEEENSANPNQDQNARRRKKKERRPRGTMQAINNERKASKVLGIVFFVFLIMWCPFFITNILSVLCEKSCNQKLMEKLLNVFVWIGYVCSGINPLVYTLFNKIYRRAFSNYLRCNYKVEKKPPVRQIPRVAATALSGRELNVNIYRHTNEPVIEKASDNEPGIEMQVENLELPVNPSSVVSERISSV

CC(C)Cc1ccnc2c1CC[C@@H]1CNCCN21 [Compound 114, (R)-4-isobutyl-6,6a,7,8,9,10-hexahydro-5H-pyrazino[1,2-a][1,8]naphthyridine] showed an EC50 [1] of 351 nM, a Ki [2] of 33 nM and a Ki [3] of 0.587 nM. For the same compound, the EC50 [4] was 0.424 nM.

For FC(F)(F)CCc1ccnc2c1CC[C@@H]1CNCCN21 [Compound 152, (R)-4-(3,3,3-trifluoropropyl)-6,6a,7,8,9,10-hexahydro-5H-pyrazino[1,2-a][1,8]naphthyridine], the cumulative food intake [5] was “significantly decreased”.

With c1ccc(Cc2cncc3c2CC[C@@H]2CNCCN32)cc1 [Compound 175, (R)-4-benzyl-6,6a,7,8,9,10-hexahydro-5H-pyrazino[1,2-a][1,7]naphthyridine] the EC50 [1] was 19900 nM, the Ki [2] was 270 nM and the Ki [3] was 0.52 nM. For the same compound, the EC50 [4] was 0.622 nM.

For CN(C)CCCC1(c2ccc(F)cc2)OCc2cc(C#N)ccc21 (centres unmarked) [citalopram], the “drop in median seizure frequency” value [6] is listed as 55.6%.

For C[C@H]1CNCCc2ccc(Cl)cc21 [lorcaserin, (R)-8-chloro-1-methyl-2,3,4,5-tetrahydro-1H-3-benzazepine], the “risk of cardiac valvulopathy” value ([7]; phase 3 program) is listed as “did not increase”, the “patients achieved at least 5% weight loss” value [7, 11] is listed as “About two-thirds” and the “patients achieved at least 10% weight loss” value [7, 11] is listed as “over one-third”. The “average weight lost, of their weight” value ([7]; pivotal phase 3 program) was “about 8%”, the “average weight loss, top quartile of patients” value ([7]; second phase 3 trial) was 35 pounds and the “average weight loss, top quartile of patients, of body weight” value ([7]; second phase 3 trial) was 16%. The HOMA-IR change ([8]; one study) was −0.4, the fasting insulin change ([8]; one study) was −3.3 μIU/mL and the “mean fasting glucose change” value [8] was -0.2 mg/dL. The “patients who decreased total daily dose of medications for dyslipidemia” value [9, 12] was 5.5%, the “patients who increased use of medications for dyslipidemia” value [9, 12] was 3.1% and the “decrease in mean daily doses of sulfonylureas and thiazolidinediones” value ([9]; patients with type 2 diabetes) was 16-24%. The “patients who decreased total daily dose of antihypertensive medications” value ([9]; patients with type 2 diabetes) was 8.2%, the “patients who increased total daily dose of antihypertensive medications” value ([9]; patients with type 2 diabetes) was 6.6% and the “patients who decreased total daily dose of antihypertensive medications” value [9, 13] was 2.2%. For the same compound, the “patients who decreased total daily dose of medications for dyslipidemia” value [9, 13] was 1.3%, the “patients who increased total daily dose of antihypertensive medications” value [9, 13] was 2.2% and the “patients who increased use of medications for dyslipidemia” value [9, 13] was 2.6%. The “reduction in HbAlc” value [10] was 0.9%.
